In brackets after ≈: the same amount, converted by molar mass.
Tests used:
[1] = Cytotoxicity against human HL-7702 cells measured after 72 hrs by MTT assay; type: cell-based; conditions: HL-7702 (L02) cells
[2] = Cytotoxicity against HFF measured after 72 hrs by MTT assay; type: cell-based; conditions: human, HFF cells
[3] = test system: Staphylococcus aureus; test: Antibacterial activity against Staphylococcus aureus measured after 24 hrs; type: functional
[4] = test system: Escherichia coli; test: Antibacterial activity against Escherichia coli measured after 24 hrs; type: functional
[5] = test system: Bacillus subtilis; test: Antibacterial activity against Bacillus subtilis measured after 24 hrs; type: functional
[6] = test system: Pseudomonas fluorescens; test: Antibacterial activity against Pseudomonas fluorescens measured after 24 hrs; type: functional

Row | Structure (SMILES) | CC50 at 72 h [1] [µg/mL] | CC50 at 72 h [2] [µg/mL] | MIC [3] [µg/mL] | MIC [4] [µg/mL] | MIC [5] [µg/mL] | MIC [6] [µg/mL]
1 | C=C1C(=O)CC[C@]2(C)c3cccc(OC)c3CC[C@@H]12 | 9.3 (≈ 36.3 µM) | 9.1 (≈ 35.5 µM) | 3.1 (≈ 12.1 µM) | 6.3 (≈ 24.6 µM) | 6.3 (≈ 24.6 µM) | 3.1 (≈ 12.1 µM)
2 | COC(=O)[C@]1(C)CCC[C@]2(C)c3ccc(C(C)C)c(NC(=O)Cn4cc(-c5ccc(OC)cc5)nn4)c3CC[C@@H]12 | – | – | 6.3 (≈ 11.6 µM) | 12.5 (≈ 22.9 µM) | 50 (≈ 91.8 µM) | 25 (≈ 45.9 µM)
3 | COC(=O)[C@]1(C)CCC[C@]2(C)c3ccc(C(C)C)c(NC(=O)Cn4cc(-c5cccc(NC(=O)OC(C)(C)C)c5)nn4)c3CC[C@@H]12 | – | – | 6.3 (≈ 10 µM) | 12.5 (≈ 19.8 µM) | 12.5 (≈ 19.8 µM) | 25 (≈ 39.7 µM)
4 | COC(=O)[C@]1(C)CCC[C@]2(C)c3ccc(C(C)C)c(NC(=O)Cn4cc(-c5ccccc5OC)nn4)c3CC[C@@H]12 | – | – | 75 (≈ 138 µM) | 75 (≈ 138 µM) | 50 (≈ 91.8 µM) | 25 (≈ 45.9 µM)
5 | COC(=O)[C@]1(C)CCC[C@]2(C)c3ccc(C(C)C)c(NC(=O)Cn4cc(-c5ccc([N+](=O)[O-])cc5)nn4)c3CC[C@@H]12 | – | – | 25 (≈ 44.7 µM) | 75 (≈ 134 µM) | 50 (≈ 89.3 µM) | 12.5 (≈ 22.3 µM)
6 | COC(=O)[C@]1(C)CCC[C@]2(C)c3ccc(C(C)C)c(NC(=O)Cn4cc(-c5ccncc5)nn4)c3CC[C@@H]12 | – | – | 0.8 (≈ 1.55 µM) | 25 (≈ 48.5 µM) | 6.3 (≈ 12.2 µM) | 3.1 (≈ 6.01 µM)
7 | COC(=O)[C@]1(C)CCC[C@]2(C)c3ccc(C(C)C)c(NC(=O)Cn4cc(-c5cccc(F)c5)nn4)c3CC[C@@H]12 | – | – | 12.5 (≈ 23.5 µM) | 25 (≈ 46.9 µM) | 6.3 (≈ 11.8 µM) | 12.5 (≈ 23.5 µM)
8 | COC(=O)[C@]1(C)CCC[C@]2(C)c3ccc(C(C)C)c(NC(=O)Cn4cc(-c5ccc6ccccc6c5)nn4)c3CC[C@@H]12 | – | – | 75 (≈ 133 µM) | 25 (≈ 44.3 µM) | 50 (≈ 88.5 µM) | 25 (≈ 44.3 µM)
9 | COC(=O)[C@]1(C)CCC[C@]2(C)c3ccc(C(C)C)c(NC(=O)Cn4cc(-c5cccc(OC)c5)nn4)c3CC[C@@H]12 | – | – | 50 (≈ 91.8 µM) | 75 (≈ 138 µM) | 75 (≈ 138 µM) | 50 (≈ 91.8 µM)
10 | COC(=O)[C@]1(C)CCC[C@]2(C)c3ccc(C(C)C)c(NC(=O)Cn4cc(-c5cccc([N+](=O)[O-])c5)nn4)c3CC[C@@H]12 | – | – | 25 (≈ 44.7 µM) | 75 (≈ 134 µM) | 50 (≈ 89.3 µM) | 50 (≈ 89.3 µM)
11 | COC(=O)[C@]1(C)CCC[C@]2(C)c3ccc(C(C)C)c(NC(=O)Cn4cc(-c5ccccn5)nn4)c3CC[C@@H]12 | – | – | 25 (≈ 48.5 µM) | 12.5 (≈ 24.2 µM) | 12.5 (≈ 24.2 µM) | 12.5 (≈ 24.2 µM)
12 | COC(=O)[C@]1(C)CCC[C@]2(C)c3ccc(C(C)C)c(NC(=O)Cn4cc(-c5ccc(F)cc5)nn4)c3CC[C@@H]12 | – | – | 50 (≈ 93.9 µM) | 50 (≈ 93.9 µM) | 25 (≈ 46.9 µM) | 50 (≈ 93.9 µM)
13 | COC(=O)[C@]1(C)CCC[C@]2(C)c3ccc(C(C)C)c(NC(=O)Cn4cc(-c5cc(OC)cc(OC)c5)nn4)c3CC[C@@H]12 | – | – | 25 (≈ 43.5 µM) | 75 (≈ 130 µM) | 100 (≈ 174 µM) | 75 (≈ 130 µM)
14 | COC(=O)[C@]1(C)CCC[C@]2(C)c3ccc(C(C)C)c(NC(=O)Cn4cc(-c5ccc(OC(F)(F)F)cc5)nn4)c3CC[C@@H]12 | – | – | 25 (≈ 41.8 µM) | 50 (≈ 83.5 µM) | 50 (≈ 83.5 µM) | 75 (≈ 125 µM)
15 | COC(=O)[C@]1(C)CCC[C@]2(C)c3ccc(C(C)C)c(NC(=O)Cn4cc(-c5cccs5)nn4)c3CC[C@@H]12 | – | – | 12.5 (≈ 24 µM) | 50 (≈ 96 µM) | 6.3 (≈ 12.1 µM) | 6.3 (≈ 12.1 µM)
16 | COC(=O)[C@]1(C)CCC[C@]2(C)c3ccc(C(C)C)c(NC(=O)Cn4cc(-c5ccc(-c6ccccc6)cc5)nn4)c3CC[C@@H]12 | – | – | 50 (≈ 84.6 µM) | 25 (≈ 42.3 µM) | 75 (≈ 127 µM) | 50 (≈ 84.6 µM)
17 | COC(=O)[C@]1(C)CCC[C@]2(C)c3ccc(C(C)C)c(NC(=O)Cn4cc(-c5ccc(C#N)cc5)nn4)c3CC[C@@H]12 | – | – | 25 (≈ 46.3 µM) | 12.5 (≈ 23.2 µM) | 12.5 (≈ 23.2 µM) | 25 (≈ 46.3 µM)
18 | CCCCCOc1ccc(-c2cn(CC(=O)Nc3c(C(C)C)ccc4c3CC[C@H]3[C@](C)(C(=O)OC)CCC[C@]43C)nn2)cc1 | – | – | 100 (≈ 166 µM) | 75 (≈ 125 µM) | 75 (≈ 125 µM) | 75 (≈ 125 µM)

Row | Structure (SMILES) | CC50 at 72 h [1] [µg/mL] | CC50 at 72 h [2] [µg/mL] | MIC [3] [µg/mL] | MIC [4] [µg/mL] | MIC [5] [µg/mL] | MIC [6] [µg/mL]
19 | COC(=O)[C@]1(C)CCC[C@]2(C)c3ccc(C(C)C)c(NC(=O)Cn4cc(-c5cccc(Br)c5)nn4)c3CC[C@@H]12 | – | – | 25 (≈ 42.1 µM) | 12.5 (≈ 21.1 µM) | 25 (≈ 42.1 µM) | 12.5 (≈ 21.1 µM)
20 | COC(=O)c1ccc(-c2cn(CC(=O)Nc3c(C(C)C)ccc4c3CC[C@H]3[C@](C)(C(=O)OC)CCC[C@]43C)nn2)cc1 | – | – | 12.5 (≈ 21.8 µM) | 6.3 (≈ 11 µM) | 12.5 (≈ 21.8 µM) | 25 (≈ 43.7 µM)
21 | COC(=O)[C@]1(C)CCC[C@]2(C)c3ccc(C(C)C)c(NC(=O)Cn4cc(-c5ccc(OCc6ccccc6)cc5)nn4)c3CC[C@@H]12 | – | – | 50 (≈ 80.5 µM) | 75 (≈ 121 µM) | 50 (≈ 80.5 µM) | 75 (≈ 121 µM)
22 | COC(=O)[C@]1(C)CCC[C@]2(C)c3ccc(C(C)C)c(NC(=O)Cn4cc(-c5nc(Cl)nc(Cl)n5)nn4)c3CC[C@@H]12 | – | – | 12.5 (≈ 21.3 µM) | 6.3 (≈ 10.7 µM) | 25 (≈ 42.6 µM) | 12.5 (≈ 21.3 µM)
23 | COC(=O)[C@]1(C)CCC[C@]2(C)c3ccc(C(C)C)c(NC(=O)Cn4cc(-c5cccc(Cl)c5)nn4)c3CC[C@@H]12 | – | – | 50 (≈ 91.1 µM) | 12.5 (≈ 22.8 µM) | 12.5 (≈ 22.8 µM) | 25 (≈ 45.5 µM)
24 | CCOCO[C@]12CCC[C@]3(CO1)c1ccc(C(C)C)c(OC)c1CC[C@@H]23 | 5.4 (≈ 15 µM) | 8.2 (≈ 22.7 µM) | 3.1 (≈ 8.6 µM) | 3.1 (≈ 8.6 µM) | 6.3 (≈ 17.5 µM) | 3.1 (≈ 8.6 µM)
25 | COC(=O)[C@]1(C)CCC[C@]2(C)c3ccc(C(C)C)c(NC(=O)Cn4cc(-c5ccc(C(F)(F)F)cc5)nn4)c3CC[C@@H]12 | – | – | 25 (≈ 42.9 µM) | 12.5 (≈ 21.5 µM) | 12.5 (≈ 21.5 µM) | 25 (≈ 42.9 µM)
26 | COC(=O)[C@]1(C)CCC[C@]2(C)c3ccc(C(C)C)c(NC(=O)Cn4cc(-c5cc(Cl)cc(Cl)c5)nn4)c3CC[C@@H]12 | – | – | 25 (≈ 42.8 µM) | 25 (≈ 42.8 µM) | 25 (≈ 42.8 µM) | 50 (≈ 85.7 µM)
27 | COC(=O)[C@]1(C)CCC[C@]2(C)c3ccc(C(C)C)c(NC(=O)Cn4cc(-c5ccc(Br)cc5)nn4)c3CC[C@@H]12 | – | – | 25 (≈ 42.1 µM) | 25 (≈ 42.1 µM) | 12.5 (≈ 21.1 µM) | 6.3 (≈ 10.6 µM)
28 | COc1c(C(C)C)ccc2c1CC=C1C3=C(CCC12C)C(=O)OC3 (single isomer, unassigned) | – | – | 75 (≈ 231 µM) | 75 (≈ 231 µM) | 100 (≈ 308 µM) | 100 (≈ 308 µM)
29 | CC(C)C1=CC2=CC[C@@H]3[C@](C)(CCC[C@@]3(C)C(=O)O)[C@H]2CC1 [ABIETIC ACID] | – | – | 25 (≈ 82.7 µM) | 50 (≈ 165 µM) | 50 (≈ 165 µM) | 25 (≈ 82.7 µM)
30 | NCC[C@H](O)C(=O)N[C@@H]1C[C@H](N)[C@@H](O[C@H]2O[C@H](CN)[C@@H](O)[C@H](O)[C@H]2O)[C@H](O)[C@H]1O[C@H]1O[C@H](CO)[C@@H](O)[C@H](N)[C@H]1O.O=S(=O)(O)O.O=S(=O)(O)O [AMIKACIN SULFATE] | – | – | 0.8 | 1.6 | 0.8 | 0.8
31 | CC(C)c1ccc2c(c1)CC[C@H]1[C@](C)(C(=O)O)CCC[C@]21C [DEHYDROABIETIC ACID] | – | – | 25 (≈ 83.2 µM) | 75 (≈ 250 µM) | 50 (≈ 166 µM) | 50 (≈ 166 µM)
32 | COC(=O)[C@]1(C)CCC[C@@]2(C)[C@H]1CC=C1C=C(C(C)C)CC[C@@H]12 [METHYL ABIETATE] | – | – | 50 (≈ 158 µM) | 75 (≈ 237 µM) | 75 (≈ 237 µM) | 50 (≈ 158 µM)
33 | COC(=O)[C@]1(C)CCC[C@]2(C)c3ccc(C(C)C)cc3CC[C@@H]12 [METHYL DEHYDROABIETATE] | – | – | 75 (≈ 238 µM) | 100 (≈ 318 µM) | 100 (≈ 318 µM) | 100 (≈ 318 µM)
34 | CCn1cc(C(=O)O)c(=O)c2cc(F)c(N3CCNCC3)cc21 [NORFLOXACIN] | – | – | 1.6 (≈ 5.01 µM) | 3.1 (≈ 9.71 µM) | 1.6 (≈ 5.01 µM) | 1.6 (≈ 5.01 µM)
35 | CC(C)c1ccc2c(c1O)CC[C@H]1C3=C(CC[C@]21C)C(=O)OC3 [TRIPTOPHENOLIDE] | – | – | 75 (≈ 240 µM) | 100 (≈ 320 µM) | 50 (≈ 160 µM) | 75 (≈ 240 µM)
